Patent publication US20240208898A1, “ENAMINE N-OXIDES: SYNTHESIS AND APPLICATION TO HYPOXIA-RESPONSIVE PRODRUGS AND IMAGING AGENTS” (DANA-FARBER CANCER INSTITUTE, INC., priority 2021, published 2024)

Assays:
Type in all cases: cell-based
[1] = tested on: BxPC-3 cells; test: Western blot of pimonidazole-labeled cells; conditions: 48 h, 10 μM, printed 'until after 1% pO2'
Protocol: Cells were seeded at a density of 200,000 cells per well in media [2 mL, RPMI supplemented with 5% heat-inactivated human serum (Sigma), penicillin (100 units/mL), and streptomycin (0.1 mg/mL)] in 6-well plates. Cells were incubated at 37° C. under ambient atmosphere with 5% CO2. After 24 hours, the media was aspirated and replaced with media [1 mL, RPMI supplemented with 5% heat-inactivated HS, penicillin (100 units/mL), and streptomycin (0.1 mg/mL)] containing pimonidazole (1 μL, 10 mM in water; 10 μM final concentration). Plates were then incubated at 37° C. under ambient (20% pO2) or oxygenated conditions (5%, 1%, or 0.1% pO2) with 5% CO2 for 48 hours. The oxygenated conditions were maintained using a hypoxia chamber (ProOx C21, Biospherix) in a cell culture incubator. After 48 hours, the media was aspirated, and the cells were washed with PBS (1 mL). PBS (1 mL) was then added to each well and the cells were scraped off with a cell scraper. […] The protein concentration was then determined by BCA assay following the manufacturer's protocol (Pierce). […] The dried pellet was then resuspended in an SDS solution (50 μL, 1% SDS in 50 mM Tris, pH 8.0), and the protein concentration was determined by BCA assay. […] Blots were imaged using a fluorescence scanner (Odyssey CLx, LI-COR Biosciences) and quantified by ImageJ.

[2] = tested on: A431 cells; test: Staurosporine release by A431 cells; conditions: 7.5×10^6 A431 cells, 100 μM compound, serum free RPMI, HPLC
Protocol: Sterilized 2 mL HPLC vials were each charged with a suspension of 7.5×10^6 cells in RPMI (1 mL) and sealed with a cap containing a septum. The vials were charged with only RPMI (1 mL) in the no cell controls. A stock solution of staurosporine enamine N-oxide 37 (10 μL, 10 mM in ethanol; 100 μM final concentration) was then added to each vial. Septa were pierced with an open 22-gauge needle for normoxic conditions. Hypoxic conditions were maintained using nitrogen lines connected to a vacuum gas manifold. The vials were maintained at 37° C. in a water bath and shaken every 15 minutes. At different time points (0, 1, 2, 4, and 8 hours), an aliquot of the cell suspension (100 μL) was removed from each vial and immediately added to acetonitrile (100 μL) containing p-nitrophenol (10 μM) as an internal standard. Quenched samples were then cooled to −20° C. for 1 hour and centrifuged at 10,000×g for 5 minutes at 4° C. The supernatant was collected and analyzed by HPLC (C18 column, 4.6×250 mm, 5 μm particle size, 1 mL/minute flow rate, eluent: gradient 0→20% MeCN/H2O+0.1% TFA (1 minute), gradient 20→40% MeCN/H2O+0.1% TFA (7 minutes), gradient 40→100% MeCN/H2O+0.1% TFA (3 minutes)). Staurosporine was quantified using its absorbance at 280 nm.

[3] = tested on: A431 or H460 cells; test: Staurosporine enamine N-oxide cell viability studies (MTT); conditions: compared with AQ4N
Protocol: A431 or H460 cells were seeded at a density of 12,000-13,000 cells per well in media [100 μL, RPMI supplemented with 5% heat-inactivated human serum (Sigma), penicillin (100 units/mL), and streptomycin (0.1 mg/mL)] in clear 96-well plates. PBS (100 μL) was added to the edge wells. The cells were incubated at 37° C. under ambient atmosphere with 5% CO2. After 24 hours, the media was aspirated and replaced with media [50 μL, RPMI supplemented with 5% HS, penicillin (100 units/mL), and streptomycin (0.1 mg/mL)] containing the staurosporine derivative of interest. For A431 cells, staurosporine or staurosporine derivative treatment concentrations started at 50 μM and were serially diluted 4-fold across nine wells. For H460 cells, staurosporine or staurosporine derivative treatment concentrations started at 100 μM and were serially diluted 4-fold across nine wells. […] After 48 hours, the media was aspirated, the wells were washed once with PBS (130 μL), and the cell viability was determined using the MTT assay. […] The absorbance at 570 nm was measured using a microplate reader (Clariostar Plus, BMG Labtech).
These studies were performed as previously reported (Manley et al., J. Pharmacol. Exp. Ther. 344:368-377 (2013)). […] After 72 hours, cell viability was determined using the MTT assay. […] The absorbance at 570 nm was then measured using a microplate reader (Clariostar Plus, BMG Labtech).

SMILES: O=[N+]([O-])c1nccn1CC(O)CN1CCCCC1 (stereo not drawn) [Pimonidazole]
- oxygen tension at which apparent half maximal labeling capacity (0.1% pO2) is reached [1]: < 1 % pO2

SMILES: CC[N+]([O-])(/C=C/COC(=O)N1Cc2c(c3c4ccccc4n4c3c3c2c2ccccc2n3[C@@]2(C)O[C@@H]4C[C@@H](NC)[C@H]2OC)C1=O)CC [compound 37, N,N-diethyl enamine N-oxide staurosporine]
- rate of conversion to staurosporine under hypoxic conditions relative to normoxic [2]: ~4 fold
- hypoxic to normoxic cytotoxicity ratios (HCR) [3]: compare favorably with and are complementary to those of AQ4N
